Consider 21 compounds from patent publication US20100029657A1, “Bridged, Bicyclic Heterocyclic or Spiro Bicyclic Heterocyclic Derivatives of Pyrazolo[1, 5-A]Pyrimidines, Methods for Preparation and Uses Thereof” (Wyeth, priority 2008, published 2010).

The target in one assay is T1, Flag/GST-tagged recombinant human B-Raf (Homo sapiens, UniProt P15056).
T1 construct: Flag; GST; made in house; host or cells: Sf9 insect cells (B-Raf); E. coli (MEK1-GST)
T1 sequence (P15056 whole entry): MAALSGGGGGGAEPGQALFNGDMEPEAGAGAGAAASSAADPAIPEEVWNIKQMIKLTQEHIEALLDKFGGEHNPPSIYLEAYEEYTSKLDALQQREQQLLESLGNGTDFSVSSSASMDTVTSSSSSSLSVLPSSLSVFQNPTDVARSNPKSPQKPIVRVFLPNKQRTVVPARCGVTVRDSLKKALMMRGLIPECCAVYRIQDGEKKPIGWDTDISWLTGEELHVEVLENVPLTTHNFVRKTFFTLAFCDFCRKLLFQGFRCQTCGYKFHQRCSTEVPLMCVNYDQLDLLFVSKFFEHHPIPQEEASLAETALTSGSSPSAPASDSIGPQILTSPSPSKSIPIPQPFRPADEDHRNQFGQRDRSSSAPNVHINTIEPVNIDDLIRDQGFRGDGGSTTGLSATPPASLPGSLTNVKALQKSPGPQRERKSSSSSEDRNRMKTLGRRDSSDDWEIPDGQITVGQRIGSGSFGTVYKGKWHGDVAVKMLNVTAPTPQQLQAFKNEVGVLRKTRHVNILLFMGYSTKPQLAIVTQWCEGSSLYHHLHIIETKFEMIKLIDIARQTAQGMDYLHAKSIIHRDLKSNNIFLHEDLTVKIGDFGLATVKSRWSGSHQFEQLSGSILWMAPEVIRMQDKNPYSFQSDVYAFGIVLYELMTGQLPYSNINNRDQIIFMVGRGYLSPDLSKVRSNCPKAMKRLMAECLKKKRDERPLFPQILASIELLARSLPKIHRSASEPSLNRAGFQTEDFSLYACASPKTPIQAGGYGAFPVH
Put plainly: B-Raf kinase assay (phosphorylation of GST-MEK1, phospho-MEK1 antibody/Europium detection). The assay is classed as biochemical. The note with it: B-Raf IC50 Data for compounds of Formula A; read-out: Mean IC50. Here is the method: B-Raf1 Kinase Assay Procedure: B-Raf-1 is used to phosphorylate GST-MEK1.
• 1. Assay Dilution Buffer (ADB): 20 mM MOPS, pH 7.2, 25 mM β-glycerol phosphate, 5 mM EGTA, 1 mM sodium orthovanadate, 1 mM dithiothreitol, 0.01% Triton X-100. • 2. Magnesium/ATP Cocktail: ADB solution (minus Triton X-100) plus 200 μM cold ATP and 40 mM magnesium chloride. • 4. Active Kinase: Active B-Raf: Used at 0.2 nM per assay point. • 5. […] TBST—Tris (50 mM, pH 7.5), NaCl (150 mM), Tween-20 (0.05%) • 7. Anti-GST Ab (GE) • 8. Anti pMEK Ab (Upstate) • 9. Anti-rabbit Ab/Europium conjugate (Wallac).
B-Raf Assay Procedure: • 1. Added 25 μL of ADB containing B-Raf and Mek per assay (i.e. per well of a 96 well plate) • 2. Added 25 μL of 0.2 mM ATP and 40 mM magnesium chloride in Magnesuium/ATP Cocktail. • 3. Incubated for 45 minutes at RT with occasional shaking. • 4. Transferred this mixture to an anti-GST Ab coated 96 well plate (Nunc Immunosorb plates coated o/n with a-GST. Plate freshly washed 3×with TBS-T before use. • 5. Incubated o/n at […] in cold room. • 6. Washed 3× with TBST, ed Anti-Phospho MEK1 (1:1000, dilution depended upon lot) • 7. Incubated for 60 minutes at RT in a shaking incubator • 8. Washed 3× with TBST, add Anti-rabbit Ab/Europium conjugate (Wallac) (1:500, dilution depended upon lot) • 9. Incubated for 60 minutes at RT on a platform shaker. • 10. Washed plate 3× with TBS-T • 11. Added 100 μL of Wallac Delfia Enhancement Solution and agitated for 10 minutes. • 12. Read plates in Wallac Victor model Plate Reader. • 13.
The % inhibition was determined for each compound concentration.
By IC50 is commonly meant the concentration that inhibits the measured activity by half. Consider `CCN1C2CCC1CC(c1ccnc3c(-c4ccnc(OC)c4)c(-c4ccncc4)nn13)C2` (stereo not drawn) [Example 20, 7-(8-Ethyl-8-azabicyclo[3.2.1]octan-3-yl)-3-(2-methoxypyridin-4-yl)-2-(pyridin-4-yl)pyrazolo[1,5-a]pyrimidine], for which the IC50 came to 0.835 µM. On the same count and under the same terms, the same measure for `CCN1C2CCC1CC(c1ccnc3c(-c4ccnc(O)c4)c(-c4ccncc4)nn13)C2` (stereo not drawn) [Example 21, 4-(7-(8-Ethyl-8-azabicyclo[3.2.1]octan-3-yl)-2-(pyridin-4-yl)pyrazolo[1,5-a]pyrimidin-3-yl)pyridin-2-ol]: greater than 1 µM. The same measure, in the same setting: the same measure for `CCN1C2CCC1CC(c1ccnc3c(-c4ccc(N)cc4)c(-c4ccncc4)nn13)C2` (stereo not drawn) [Example 22, 4-(7-(8-Ethyl-8-azabicyclo[3.2.1]octan-3-yl)-2-(pyridin-4-yl)pyrazolo[1,5-a]pyrimidin-3-yl)aniline]: greater than 1 µM.

Take `CCN1C2CCC1CC(c1ccnc3c(-c4ccc(NC(N)=O)cc4)c(-c4ccncc4)nn13)C2` (stereo not drawn) [Example 23, 1-(4-(7-(8-Ethyl-8-azabicyclo[3.2.1]octan-3-yl)-2-(pyridin-4-yl)pyrazolo[1,5-a]pyrimidin-3-yl)phenyl)urea]: the IC50 was greater than 1 µM. Same read-out and setting: the same measure for `CN1C2CCC1CN(c1ccc(-c3ccnc4c(-c5cccc(O)c5)c(-c5ccncc5)nn34)cc1)C2` [Example 25, 3-{7-[4-(8-Methyl-3,8-diaza-bicyclo[3.2.1]oct-3-yl)-phenyl]-2-pyridin-4-yl-pyrazolo[1,5-a]pyrimidin-3-yl}-phenol]: 0.001 µM. The same measure, in the same setting: the same measure for `COc1cccc(-c2c(-c3ccncc3)nn3c(-c4ccc(N5C[C@@H]6C[C@H]5CN6)cc4)ccnc23)c1` [Example 28, 7-[4-((1S,4S)-2,5-Diaza-bicyclo[2.2.1]hept-2-yl)-phenyl]-3-(3-methoxy-phenyl)-2-pyridin-4-yl-pyrazolo[1,5-a]pyrimidine]: 0.016 µM; for `Oc1cccc(-c2c(-c3ccncc3)nn3c(-c4ccc(N5C[C@@H]6C[C@H]5CN6)cc4)ccnc23)c1` [Example 29, 3-{7-[4-((1S,4S)-2,5-Diaza-bicyclo[2.2.1]hept-2-yl)-phenyl]-2-pyridin-4-yl-pyrazolo[1,5-a]pyrimidin-3-yl}-phenol]: 0.0005 µM; for `CN1C[C@@H]2C[C@H]1CN2c1ccc(-c2ccnc3c(-c4cccc(O)c4)c(-c4ccncc4)nn23)cc1` [Example 30, 3-{7-[4-((1S,4S)-5-Methyl-2,5-diaza-bicyclo[2.2.1]hept-2-yl)-phenyl]-2-pyridin-4-yl-pyrazolo[1,5-a]pyrimidin-3-yl}-phenol]: less than 0.003 µM. As for `COc1cc(-c2c(-c3ccncc3)nn3c(-c4ccc(N5C[C@@H]6C[C@H]5CN6)cc4)ccnc23)ccc1Cl` [Example 31, 7-(4-((1S,4S)-2,5-Diaza-bicyclo[2.2.1]heptan-2-yl)phenyl)-3-(4-chloro-3-methoxyphenyl)-2-(pyridin-4-yl)pyrazolo[1,5-a]pyrimidine], the IC50 came out at 0.0018 µM. On the same count and under the same terms, next, `COc1cc(-c2c(-c3ccncc3)nn3c(-c4ccc(N5C[C@@H]6C[C@H]5CN6)cc4)ccnc23)ccc1F` [Example 32, 7-(4-((1S,4S)-2,5-Diaza-bicyclo[2.2.1]heptan-2-yl)phenyl)-3-(4-fluoro-3-methoxyphenyl)-2-(pyridin-4-yl)pyrazolo[1,5-a]pyrimidine]: 0.0087 µM. The same measure, in the same setting: next, `Oc1cc(-c2c(-c3ccncc3)nn3c(-c4ccc(N5C[C@@H]6C[C@H]5CN6)cc4)ccnc23)ccc1F` [Example 33, 5-(7-(4-((1S,4S)-2,5-Diazabicyclo[2.2.1]heptan-2-yl)phenyl)-2-(pyridin-4-yl)pyrazolo[1,5-a]pyrimidin-3-yl)-2-fluorophenol]: less than 0.0003 µM; `CN1C[C@@H]2C[C@H]1CN2c1ccc(-c2ccnc3c(-c4cccc5[nH]ncc45)c(-c4ccncc4)nn23)cn1` [Example 34, 3-(1H-Indazol-4-yl)-7-(6-((1S,4S)-5-methyl-2,5-diazabicyclo[2.2.1]heptan-2-yl)pyridin-3-yl)-2-(pyridin-4-yl)pyrazolo[1,5-a]pyrimidine]: 0.0023 µM; `CN1C[C@@H]2C[C@H]1CN2c1ccc(-c2ccnc3c(-c4cccc5[nH]ncc45)c(-c4ccncc4)nn23)cc1` [Example 35, 3-(1H-indazol-4-yl)-7-(4-((1S,4S)-5-methyl-2,5-diazabicyclo[2.2.1]heptan-2-yl)phenyl)-2-(pyridin-4-yl)pyrazolo[1,5-a]pyrimidine]: 0.0015 µM. Still for that read-out and setting: next, `COc1cccc(-c2c(-c3ccncc3)nn3c(-c4ccc(N5C[C@@H]6C[C@H]5CN6C)cc4)ccnc23)c1` [Example 36, 3-(3-Methoxyphenyl)-7-(4-((1S,4S)-5-methyl-2,5-diazabicyclo[2.2.1]heptan-2-yl)phenyl)-2-(pyridin-4-yl)pyrazolo[1,5-a]pyrimidine]: 0.0082 µM; `COc1cc(-c2c(-c3ccncc3)nn3c(-c4ccc(N5C[C@@H]6C[C@H]5CN6C)cc4)ccnc23)ccc1F` [Example 37, 3-(4-Fluoro-3-methoxyphenyl)-7-(4-((1S,4S)-5-methyl-2,5-diazabicyclo[2.2.1]heptan-2-yl)phenyl)-2-(pyridin-4-yl)pyrazolo[1,5-a]pyrimidine]: 0.021 µM.

As for `CCN1C[C@@H]2C[C@H]1CN2c1ccc(-c2ccnc3c(-c4ccc(F)c(O)c4)c(-c4ccncc4)nn23)cc1` [Example 38, 5-(7-(4-((1S,4S)-5-Ethyl-2,5-diazabicyclo[2.2.1]heptan-2-yl)phenyl)-2-(pyridin-4-yl)pyrazolo[1,5-a]pyrimidin-3-yl)-2-fluorophenol], the IC50 amounted to 0.0005 µM. `CC(=O)N1C[C@@H]2C[C@H]1CN2c1ccc(-c2ccnc3c(-c4ccc(F)c(O)c4)c(-c4ccncc4)nn23)cc1` [Example 39, 1-((1S,4S)-5-(4-(3-(4-Fluoro-3-hydroxyphenyl)-2-(pyridin-4-yl)pyrazolo[1,5-a]pyrimidin-7-yl)phenyl)-2,5-diazabicyclo[2.2.1]heptan-2-yl)ethanone]: the IC50 came out at 0.0005 µM. On the same count and under the same terms, the same measure for `Cc1ccc(-c2c(-c3ccncc3)nn3c(-c4ccc(N5C[C@@H]6C[C@H]5CN6C)nc4)ccnc23)c2cn[nH]c12` [Example 40, 3-(7-Methyl-1H-indazol-4-yl)-7-(6-((1S,4S)-5-methyl-2,5-diazabicyclo[2.2.1]heptan-2-yl)pyridin-3-yl)-2-(pyridin-4-yl)pyrazolo[1,5-a]pyrimidine]: 0.0007 µM; for `CN1C[C@@H]2C[C@H]1CN2c1ccc(-c2ccnc3c(-c4ccc(Cl)c5[nH]ncc45)c(-c4ccncc4)nn23)cn1` [Example 41, 3-(7-Chloro-1H-indazol-4-yl)-7-(6-((1S,4S)-5-methyl-2,5-diazabicyclo[2.2.1]heptan-2-yl)pyridin-3-yl)-2-(pyridin-4-yl)pyrazolo[1,5-a]pyrimidine]: less than 0.0003 µM.

The same assay, now with this note: Mean IC50 (uM), B-Raf IC50 Data for compounds of Formula A.
`COc1cc(-c2c(-c3ccncc3)nn3c(-c4ccc(N5CC6CCC(C5)N6C)cc4)ccnc23)ccc1Cl` [Example 26, 3-(4-Chloro-3-methoxy-phenyl)-7-[4-(8-methyl-3,8-diaza-bicyclo[3.2.1]oct-3-yl)-phenyl]-2-pyridin-4-yl-pyrazolo[1,5-a]pyrimidine]: the IC50 came out at 0.01 µM. With `CN1C2CCC1CN(c1ccc(-c3ccnc4c(-c5ccc(Cl)c(O)c5)c(-c5ccncc5)nn34)cc1)C2` [Example 27, 2-Chloro-5-{7-[4-(8-methyl-3,8-diaza-bicyclo[3.2.1]oct-3-yl)-phenyl]-2-pyridin-4-yl-pyrazolo[1,5-a]pyrimidin-3-yl}-phenol], the IC50 was less than 0.0003 µM.
